Data: the supplement of paper PMC10307832

Compound: COc1nc(N)nc2c1ncn2[C@@H]1O[C@H](CO)[C@@H](O)[C@@H]1O [Nelarabine] + COc1cccc2cc(-c3nc([C@H]4CC[C@H](C(=O)O)CC4)n4ncnc(N)c34)[nH]c12 [OSI-027] (partner 0.5 µM)
Assay: relative viability (nuclei count vs DMSO), 5 days (fraction); higher = more cells survive
Conditions: first compound 0.01 µM
How it was run: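 One day after seeding in 1536-well plates, lung cancer cell lines were dosed by pin tool. Dosing was either single-drug or a fixed anchor-drug dose plus five library-drug doses (not always all listed) in √10 steps. After 5 days, nuclei were stained in one fix-and-stain step and counted on 4× images, and relative viability is the nuclei count of treated wells over that of vehicle wells, given as the median of duplicate plates.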

Cell Line	relative viability
201T	0.85
A-427	0.489
ABC-1	0.535
BEN	0.328
CAL-12T	0.616
COR-L23	0.911
COR-L 105	0.781
ChaGo-K-1	0.676
EKVX	0.797
EPLC-272H	0.28
HARA	0.645
HCC-15	0.817
HCC-44	0.568
HCC-78	0.306
HCC-366	1.3
HCC-827	0.741
HOP-62	0.981
LC-2-ad	0.922
LCLC-97TM1	0.713

Cell Line	relative viability
LCLC-103H	0.499
LK-2	0.167
LOU-NH91	0.738
LU99A	0.315
LXF-289	0.899
NCI-H23	0.686
NCI-H322M	0.575
NCI-H358	1
NCI-H441	0.535
NCI-H460	1.06
NCI-H522	0.758
NCI-H1395	0.611
NCI-H1623	0.436
NCI-H1648	0.237
NCI-H1650	0.713
NCI-H1793	0.327
NCI-H2170	0.716
NCI-H2342	0.734
SW 900	0.569

Same assay, conditions: first compound 0.03162 µM

Cell Line	relative viability
201T	0.638
A-427	0.42
ABC-1	0.48
BEN	0.293
CAL-12T	0.874
COR-L23	0.611
COR-L 105	0.82
ChaGo-K-1	0.444
EKVX	0.661
EPLC-272H	0.248
H3255	0.653
HARA	0.583
HCC-15	0.559
HCC-44	0.484
HCC-78	0.35
HCC-366	0.737
HCC-827	0.738
HOP-62	0.866
LC-2-ad	0.879

Cell Line	relative viability
LCLC-97TM1	0.483
LCLC-103H	0.322
LOU-NH91	0.785
LU99A	0.295
LXF-289	0.97
NCI-H23	0.504
NCI-H322M	0.544
NCI-H358	0.816
NCI-H441	0.497
NCI-H460	1.08
NCI-H522	0.76
NCI-H1395	0.587
NCI-H1623	0.374
NCI-H1648	0.282
NCI-H1650	0.619
NCI-H1793	0.238
NCI-H2170	0.67
NCI-H2342	0.533
SW 900	0.551

Same assay, conditions: first compound 0.1 µM

Cell Line	relative viability
201T	0.762
A-427	0.373
ABC-1	0.38
BEN	0.541
CAL-12T	0.687
COR-L23	0.854
COR-L 105	0.531
ChaGo-K-1	0.663
EKVX	0.652
EPLC-272H	0.269
H3255	0.637
HARA	0.439
HCC-15	0.675
HCC-44	0.607
HCC-366	0.878
HCC-827	0.76
HOP-62	0.971
LC-2-ad	0.754
LCLC-97TM1	0.357

Cell Line	relative viability
LCLC-103H	0.459
LK-2	0.159
LOU-NH91	0.657
LU99A	0.307
LXF-289	0.966
NCI-H23	0.512
NCI-H322M	0.431
NCI-H358	0.767
NCI-H441	0.592
NCI-H460	0.971
NCI-H522	0.713
NCI-H1395	0.632
NCI-H1623	0.392
NCI-H1648	0.264
NCI-H1650	0.458
NCI-H1793	0.247
NCI-H2170	0.704
NCI-H2342	0.564
SW 900	0.565

Same assay, conditions: first compound 0.3162 µM

Cell Line	relative viability
201T	1.15
A-427	0.443
ABC-1	0.44
BEN	0.296
CAL-12T	0.635
COR-L23	0.878
COR-L 105	0.616
ChaGo-K-1	0.758
EKVX	0.729
EPLC-272H	0.311
H3255	0.585
HARA	0.671
HCC-15	0.703
HCC-44	0.518
HCC-78	0.385
HCC-366	1.28
HCC-827	0.595
HOP-62	0.941
LC-2-ad	0.81
LCLC-97TM1	0.527

Cell Line	relative viability
LCLC-103H	0.464
LK-2	0.178
LOU-NH91	0.765
LU99A	0.309
LXF-289	0.958
NCI-H23	0.738
NCI-H322M	0.516
NCI-H358	1.09
NCI-H441	0.782
NCI-H460	1.08
NCI-H522	0.722
NCI-H1395	0.615
NCI-H1623	0.379
NCI-H1648	0.256
NCI-H1650	0.767
NCI-H1793	0.372
NCI-H2170	0.656
NCI-H2342	0.75
SW 900	0.452

Same assay, conditions: first compound 1 µM

Cell Line	relative viability
201T	0.85
A-427	0.52
ABC-1	0.477
BEN	0.301
